Patent US6653478B2, “Substituted benzimidazol-2-ones as vasopressin receptor antagonists and neuropeptide Y modulators” (Ortho-McNeil Pharmaceutical, Inc., priority 2000, dated 2003)
Counter-ions that a name gives are not always drawn.

Columns and labels:
human V2 receptor = human V2 receptor (Homo sapiens, UniProt P30518); assay: V2 binding assay (3H-AVP displacement, HEK-293 membranes); parameters: expressed in transfected cells; host or cells: HEK-293 (membranes); conditions: 1.0 μM compound; for inhibition at 1 µM: read-out: V2@1.0, % Inh
Method in brief: (§1)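 Read-out is filter-retained 3H-AVP, counted by scintillation after washing with cold saline/0.05% Tween 20. Binding ran 1 hour at room temperature in pH 7.5 buffer with protease inhibitors; 1.25 μM unlabelled AVP gave non-specific binding.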

NPY2 receptors = molecular target: T1, NPY2 receptors (Homo sapiens, UniProt P49146); assay: Neuropeptide Y receptor binding assay (125I-PYY, KAN-TS cell membranes); conditions: 10 μM compound; for inhibition at 10 µM: read-out: NPY-2@10, % Inh
T1 construct: Cell Membranes from KAN-TS cells having NPY2 receptors; endogenous in cells; host or cells: KAN-TS cells (membranes)
T1 sequence (P49146 1-381): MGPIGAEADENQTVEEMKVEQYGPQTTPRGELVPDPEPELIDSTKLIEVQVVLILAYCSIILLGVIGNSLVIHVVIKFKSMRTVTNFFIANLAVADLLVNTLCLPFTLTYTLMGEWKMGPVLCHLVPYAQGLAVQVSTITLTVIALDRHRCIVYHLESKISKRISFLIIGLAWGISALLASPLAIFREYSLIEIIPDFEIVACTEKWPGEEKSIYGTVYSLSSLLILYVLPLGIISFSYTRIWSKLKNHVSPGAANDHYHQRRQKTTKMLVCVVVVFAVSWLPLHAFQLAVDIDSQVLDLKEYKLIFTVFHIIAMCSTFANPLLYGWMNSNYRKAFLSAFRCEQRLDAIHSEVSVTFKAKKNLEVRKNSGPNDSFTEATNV
Description: Neuropeptide Y Receptor Binding Assay
Load 96-well RIA racks with RIA vials (Sarstedt, cat. #73.1055)
Prepare membranes—use 2×15 cm confluent plates/96-well assay plate
Add 14 mls Homogenization buffer/cell pellet
Homogenize at high speed for 15 seconds
Transfer to 15 ml conical tube and spin 5′ at 4° C. at setting 3 in RT6000 centrifuge
Transfer supernatant to 30 ml Corex tube
Balance and spin 25′ at 15,000 rpm at 4° C.
Resuspend pellet in 10 mls Binding buffer
Homogenize at high speed for 15 sec.
Bring volume up to 50 mls in Binding buffer (25 mls/2×96-well plates)
Keep on ice until use or freeze in aliquots (2 plates/tube) in −70° C.
Prepare ^125I-PYY (for 2×96-well compound plates)
Dilute 50 uCi ^125I-PYY in 1 ml H2O
Add 0.4 ml 10% BSA to 20 ml Binding buffer
Add 150 μl ^125I-PYY, mix well
NSB (1 μM PYY final conc.): 40 μl PYY (100 μM stock)+60 μl 30% DMSO in HEPES=40 μM PYY—add 5 μl/well
Total Binding: Add 5 μl/well of Compound Diluent
Add 5 μl compound (final conc. @10 μM)
Incubate at R.T. for 1 hr.
Spin plates for 10′ at setting 9 in RT6000 centrifuge
Aspirate supernatant from tubes, add 300 μl PBS and aspirate again.
After plates are washed and aspirated, put individual tubes in 12×75 mm polypropylene carrier tubes. Count on gamma counter.

human V1b receptor = molecular target: T2, human V1b receptor (Homo sapiens, UniProt P47901); assay: V1b binding assay (3H-AVP displacement, HEK-293 membranes); parameters: expressed in transfected cells; host or cells: HEK-293 (membranes); conditions: for inhibition at 10 µM: 10 μM compound, read-out: V1b % Inh @10; for inhibition at 1 µM: read-out: V1b@1.0, % Inh
T2 sequence (P47901 1-424): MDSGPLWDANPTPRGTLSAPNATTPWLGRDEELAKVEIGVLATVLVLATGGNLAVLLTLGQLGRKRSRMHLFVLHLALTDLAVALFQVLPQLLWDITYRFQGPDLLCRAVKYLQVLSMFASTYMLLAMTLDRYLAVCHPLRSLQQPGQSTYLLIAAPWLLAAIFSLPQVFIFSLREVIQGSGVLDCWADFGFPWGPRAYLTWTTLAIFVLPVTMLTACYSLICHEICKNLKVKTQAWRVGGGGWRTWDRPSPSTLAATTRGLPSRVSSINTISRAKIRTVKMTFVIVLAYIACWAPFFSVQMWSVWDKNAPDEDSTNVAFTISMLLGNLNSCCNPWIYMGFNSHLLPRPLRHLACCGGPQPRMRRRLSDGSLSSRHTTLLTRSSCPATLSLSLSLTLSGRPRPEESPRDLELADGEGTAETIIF
Method in brief: as §1

human V1a receptor = human V1a receptor (Homo sapiens, UniProt P37288); assay: V1a binding assay (3H-AVP displacement, HEK-293 membranes); parameters: expressed in transfected cells; host or cells: HEK-293 (membranes); conditions: for inhibition at 0.1 µM: 0.1 μM compound, read-out: V1a % Inh @0.1; for inhibition at 1 µM: read-out: V1a@1.0, % Inh
Method in brief: as §1

Sequence of human V1a receptor (P37288 whole entry): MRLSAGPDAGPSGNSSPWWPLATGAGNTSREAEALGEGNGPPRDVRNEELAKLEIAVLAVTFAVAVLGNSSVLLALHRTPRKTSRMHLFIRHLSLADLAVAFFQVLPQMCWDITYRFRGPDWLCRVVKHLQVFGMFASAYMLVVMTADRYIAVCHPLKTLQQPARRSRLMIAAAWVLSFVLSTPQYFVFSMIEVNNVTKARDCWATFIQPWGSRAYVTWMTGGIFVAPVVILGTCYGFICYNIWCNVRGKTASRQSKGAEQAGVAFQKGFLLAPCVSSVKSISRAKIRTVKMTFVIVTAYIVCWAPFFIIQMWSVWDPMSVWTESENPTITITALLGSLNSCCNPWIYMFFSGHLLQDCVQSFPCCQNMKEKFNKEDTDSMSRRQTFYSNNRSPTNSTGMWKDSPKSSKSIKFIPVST
Sequence of human V2 receptor (P30518 whole entry): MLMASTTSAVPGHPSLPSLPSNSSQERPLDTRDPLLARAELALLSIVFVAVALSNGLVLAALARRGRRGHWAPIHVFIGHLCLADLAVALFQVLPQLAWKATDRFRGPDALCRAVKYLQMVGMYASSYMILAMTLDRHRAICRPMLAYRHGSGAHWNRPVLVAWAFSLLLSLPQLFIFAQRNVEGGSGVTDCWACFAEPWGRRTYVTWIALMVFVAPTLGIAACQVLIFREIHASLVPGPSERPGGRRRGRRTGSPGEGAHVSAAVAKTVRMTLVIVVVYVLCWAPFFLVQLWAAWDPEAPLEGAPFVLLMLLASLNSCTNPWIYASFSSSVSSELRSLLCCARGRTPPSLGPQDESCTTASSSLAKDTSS

SMILES | inhibition at 1 µM (human V2 receptor) | inhibition at 10 µM (NPY2 receptors) | inhibition at 10 µM (human V1b receptor) | IC50 (human V1b receptor) | IC50 (human V1a receptor) | also measured
NCCCn1c(=O)n(C2CCN(C(=S)NC(c3ccccc3)c3ccccc3)CC2)c2cc(Cl)c(Cl)cc21 [Compound 67, 5,6-Dichloro-1-[(N1-piperidinocarbothioylbenzhydrylamino)-4-yl]-3-(3-aminopropyl)-1,3-dihydro-benzimidazol-2-one] | 0% | 2% | 45% | – | – | inhibition at 0.1 µM (human V1a receptor): 57%
COc1ccc(C(NC(=S)N2CCC(n3c(=O)n(CCCN)c4ccccc43)CC2)c2ccc(OC)cc2)cc1 [Compound 68, 1-[(N1-Piperidinocarbothioyl-1,1-di(p-anisyl)methylamino)-4-yl]-3-(3-aminopropyl)-1,3-dihydrobenzimidazol-2-one Hydrochloride] | 0% | 11% | 66% | 4600 nM | – | inhibition at 0.1 µM (human V1a receptor): 46%
NC(=O)CCn1c(=O)n(C2CCN(C(=S)NC(c3ccccc3)c3ccccc3)CC2)c2ccccc21 [Compound 69, 1-[(N1-piperidinocarbothioyldiphenylmethylamino)-4-yl]-3-(2-amidoethyl)-1,3-dihydro-benzimidazol-2-one] | 0% | 40% | 27% | – | – | inhibition at 1 µM (human V1a receptor; 1.0 μM compound): 22%
CN(C)CCCn1c(=O)n(C2CCN(C(=S)NC(c3ccccc3)c3ccccc3)CC2)c2ccccc21 [Compound 71, 1-[(N1-piperidinocarbothioylbenzhydrylamino)-4-yl]-3-(3-N,N-dimethylaminopropyl)-1,3-dihydrobenzimidazol-2-one] | 0% | 79% | 88% | 870 nM | 29 nM | –
O=c1n(CCCN2CCCC2)c2ccccc2n1C1CCN(C(=S)NC(c2ccccc2)c2ccccc2)CC1 [Compound 73, 1-[(N1-piperidinocarbothioylbenzhydrylamino)-4-yl]-3-(3-N-pyrrolidinopropyl)-1,3-dihydro-benzimidazol-2-one] | 0% | 89% | – | 300 nM | 16 nM | –
O=C(NCc1ccccc1)N1CCC(n2c(=O)[nH]c3ccccc32)CC1 [Compound 74] | 0% | 0% | 29% | – | – | inhibition at 1 µM (human V1a receptor; 1.0 μM compound): 0%
O=C(NC(c1ccccc1)c1ccccc1)N1CCC(n2c(=O)[nH]c3ccccc32)CC1 [Compound 75] | 0% | 12% | – | 1000 nM | – | inhibition at 1 µM (human V1a receptor; 1.0 μM compound): 58%
CC(=O)NCCCn1c(=O)n(C2CCN(C(=S)NC(c3ccccc3)c3ccccc3)CC2)c2ccccc21 [Compound 76, 1-[(N1-Piperidinocarbothioyldiphenylmethylamino)-4-yl]-3-(3-acetamidopropyl)-1,3-dihydrobenzimidazol-2-one] | 0% | 41% | 25% | – | 250 nM | –
NCCCn1c(=O)n(C2CCN(C(=O)NC(c3ccccc3)c3ccccc3)CC2)c2ccccc21 [Compound 77, 1-[(N1-Piperidinocarbonyldiphenylmethylamino)-4-yl]-3-(3-aminopropyl)-1,3-dihydrobenzimidazol-2-one] | 0% | 10% | 30% | – | 79 nM | –
CN1CCN(CCCn2c(=O)n(C3CCN(C(=S)NC(c4ccccc4)c4ccccc4)CC3)c3ccccc32)CC1 [Compound 78, 1-[(N1-piperidinocarbothioylbiphenylmethylamino)-4-yl]-3-(3-N-(N-Methylpiperazino)propyl)-1,3-dihydrobenzimidazol-2-one] | 17% | 74% | 41% | – | – | inhibition at 1 µM (human V1a receptor; 1.0 μM compound): 95%
CCCN(CCC)CCCn1c(=O)n(C2CCN(C(=S)NC(c3ccccc3)c3ccccc3)CC2)c2ccccc21 [Compound 79, 1-[(N1-piperidinocarbothioylbiphenylmethylamino)-4-yl]-3-(3-N,N-dipropylaminopropyl)-1,3-dihydrobenzimidazol-2-one] | 13% | 80% | – | – | 16 nM | inhibition at 1 µM (human V1b receptor; 1.0 μM compound): 48%
O=c1n(CCCN2CCCCC2)c2ccccc2n1C1CCN(C(=S)NC(c2ccccc2)c2ccccc2)CC1 [Compound 81, 1-[(N1-piperidinocarbothioylbiphenylmethylamino)-4-yl]-3-(3-N-piperidinylpropyl)-1,3-dihydrobenzimidazol-2-one] | 18% | 89% | – | 76 nM | 4 nM | –
CC1CC(C)CN(CCCn2c(=O)n(C3CCN(C(=S)NC(c4ccccc4)c4ccccc4)CC3)c3ccccc32)C1 (centres unmarked) [Compound 82] | 11% | 91% | – | 140 nM | 6 nM | –
CCOC(=O)C1CCN(CCCn2c(=O)n(C3CCN(C(=S)NC(c4ccccc4)c4ccccc4)CC3)c3ccccc32)CC1 [Compound 83, 1-[(N1-piperidinocarbothioylbiphenylmethylamino)-4-yl]-3-[3-(4-ethylcarboxypiperidine)propyl]-1,3-dihydrobenzimidazol-2-one] | 2% | 79% | – | – | 44 nM | inhibition at 1 µM (human V1b receptor; 1.0 μM compound): 47%
O=c1n(CCCN2CCOCC2)c2ccccc2n1C1CCN(C(=S)NC(c2ccccc2)c2ccccc2)CC1 [Compound 84, 1-[(N1-piperidinocarbothioylbiphenylmethylamino)-4-yl]-3-(3-morpholinopropyl)-1,3-dihydrobenzimidazol-2-one] | 8% | 73% | – | 274 nM | 22 nM | –
CCN(CC)CCCn1c(=O)n(C2CCN(C(=S)NC(c3ccccc3)c3ccccc3)CC2)c2ccccc21 [Compound 85, 1-[(N1-piperidinocarbothioylbiphenylmethylamino)-4-yl]-3-(3-N,N-diethylaminopropyl)-1,3-dihydrobenzimidazol-2-one] | 8% | 81% | – | 230 nM | 20 nM | –
COC(=O)C(Cc1ccccc1)NC(=S)N1CCC(n2c(=O)n(CCCN3CCCC3)c3ccccc32)CC1 [Compound 86, 1-[(N1-Piperidinocarbothioyl-(2-phenyl-1-L-carboxymethyl)amino-4-yl)-4-yl]-3-(3-pyrrolidinylpropyl)-1,3-dihydrobenzimidazol-2-one] | 3% | 10% | – | 1190 nM | 13 nM | –
COc1ccccc1NC(=S)N1CCC(n2c(=O)n(CCCN3CCCC3)c3ccccc32)CC1 [Compound 87, 1-[(N1-Piperidinocarbothioyl-(2-methoxyphenyl)amino)-4-yl]-3-(3-pyrrolidinylpropyl)-1,3-dihydrobenzimidazol-2-one] | – | – | – | – | – | V2@1.0, % Inh (human V2 receptor): 3%; NPY-2@10, % Inh (NPY2 receptors): 13%; V1b@1.0, % Inh (human V1b receptor; 1.0 μM compound): 23%; V1a@1.0, % Inh (human V1a receptor; 1.0 μM compound): 30%
